Columns and labels:
[1] = tested on: Mouse microglial cell line BV2; experiment: LPS-induced inflammatory response in microglia cell line BV2 (real-time PCR of Il1b); type: cell-based; conditions: 10 μM compound
Protocol: Mouse microglial cell line BV2 was treated with 25 ng/mL lipopolysaccharide (LPS) and 10 μM MZ3, respectively.
(§1) After the cells were treated for 24 hours, RNAs were extracted by TRIzol (Thermo Fisher Scientific), and then reverse-transcribed using Rever Tra Ace qPCR RT Kit (TOYOBO), and real-time fluorescence quantification PCR was performed using FastStart Universal SYBR Green Master (Roche) to detect the transcription levels of inflammation-related gene Il1b.
as §1, with “12” for “24”
Mouse microglial cell line BV2 was treated with 100 ng/mL lipopolysaccharide (LPS) and 10 μM MZ24, MZ25, MZ26, MZ28, MZ29 and MZ31, respectively.

[2] = molecular target: T1, USP25 (His-USP25^a.a.157-706 recombinant protein, deubiquitinase catalytic domain) (Homo sapiens, UniProt Q9UHP3); experiment: Screening of USP25 inhibitors with Ubiquitin-Rhodamine 110; conditions: 10 μM compound, 33.3 nM His-USP25^157-706, 133.3 nM Ubiquitin-Rhodamine 110
T1 sequence (Q9UHP3 157-706): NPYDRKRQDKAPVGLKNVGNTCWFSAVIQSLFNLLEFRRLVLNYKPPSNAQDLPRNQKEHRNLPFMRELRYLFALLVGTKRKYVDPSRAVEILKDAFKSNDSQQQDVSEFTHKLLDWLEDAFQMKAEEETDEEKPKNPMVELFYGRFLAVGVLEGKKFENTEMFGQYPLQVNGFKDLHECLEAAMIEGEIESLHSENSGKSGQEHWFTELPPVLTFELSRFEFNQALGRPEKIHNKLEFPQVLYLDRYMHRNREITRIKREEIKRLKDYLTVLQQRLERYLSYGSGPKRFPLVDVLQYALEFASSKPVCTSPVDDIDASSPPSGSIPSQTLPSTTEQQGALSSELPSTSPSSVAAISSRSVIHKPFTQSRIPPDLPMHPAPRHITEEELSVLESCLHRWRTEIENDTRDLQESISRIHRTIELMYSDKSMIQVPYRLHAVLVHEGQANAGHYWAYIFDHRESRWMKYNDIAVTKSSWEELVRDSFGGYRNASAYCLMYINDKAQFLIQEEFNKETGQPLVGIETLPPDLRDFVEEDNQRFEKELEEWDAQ
Source text: And then, the fluorescence intensity of Ubiquitin-Rhodamine 110 was detected by a Tecan Spark multifunctional microplate reader (Tecan, Switzerland).

[3] = tested on: microglia of C57BL/6 mice; experiment: LPS-induced inflammatory response of primary microglia (real-time PCR of Il1b and Il6); type: cell-based; conditions: 50 ng/mL LPS, 10 μM compound, 6 hours
Protocol: as §1, with “6” for “24”, “genes Il1b and Il6.” for “gene Il1b.”
as §1, with “6” for “24”

SMILES	deubiquitinase activity of USP25 (Ubiquitin-Rhodamine 110 fluorescence intensity) [2]	further results
CN1CCN(Cc2ccc(OC(F)F)c(OCc3cc(F)c(F)cc3F)c2)CC1 [MZ28]	can significantly inhibit	LPS-induced Il1b expression ([1]; BV2, 100 ng/mL LPS, 12 hours): can significantly reduce
O=Cc1ccc(OCc2ccc(F)c(C(F)(F)F)c2)c(OC(F)F)c1 [MZ40]	can significantly inhibit	
OCCNCc1ccccc1OCc1ccc(F)c(C(F)(F)F)c1 [MZ66]	can significantly inhibit	
Fc1ccc(COc2ccc(Br)cc2CNCCC2CCN(Cc3ccccc3)CC2)cc1C(F)(F)F [MZ37]	can significantly inhibit	
NCc1cc(Br)ccc1OCc1ccc(F)c(C(F)(F)F)c1 [XMU1, (5-bromo-2-((4-fluoro-3-(trifluoromethyl)benzyl)oxy)phenyl)methanamine]	can significantly inhibit	LPS-induced Il1b expression [3]: can significantly reduce
Fc1cc(COc2ccc(Br)cc2CNCCc2c[nH]c3ccccc23)ccc1C(F)(F)F [MZ31]	can significantly inhibit	LPS-induced Il1b expression ([1]; BV2, 100 ng/mL LPS, 12 hours): can significantly reduce
COc1cc(OC)c(CN2CCN(CCO)CC2)c(OCc2cc(C(F)(F)F)cc(C(F)(F)F)c2)c1 [MZ24]	can significantly inhibit	LPS-induced Il1b expression ([1]; BV2, 100 ng/mL LPS, 12 hours): can significantly reduce
OCCN1CCN(Cc2ccc(OC(F)F)c(OCc3cc(C(F)(F)F)cc(C(F)(F)F)c3)c2)CC1 [MZ25]	can significantly inhibit	LPS-induced Il1b expression ([1]; BV2, 100 ng/mL LPS, 12 hours): can significantly reduce
Fc1cc(F)c(COc2cc(CN3CCc4ccccc4C3)ccc2OC(F)F)cc1F [MZ30]	can significantly inhibit	
COc1cc(OC)c(CNc2ccc(Br)cn2)c(OCc2cc(C(F)(F)F)cc(C(F)(F)F)c2)c1 [MZ5]	can significantly inhibit	
COc1cc(OC)c(CN2CCN(C)CC2)c(OCc2cc(C(F)(F)F)cc(C(F)(F)F)c2)c1 [MZ4]	can significantly inhibit	
CCN(CC)CCNCc1ccc(OC(F)F)c(OCc2cc(F)c(F)cc2F)c1 [MZ27]	can significantly inhibit	
O=Cc1ccc(OC(F)F)c(OCc2cc(C(F)(F)F)cc(C(F)(F)F)c2)c1 [MZ42]	can significantly inhibit	
COc1cc(OC)c(C=O)c(OCc2ccc(F)c(C(F)(F)F)c2)c1 [MZ43]	can significantly inhibit	
CCN(CC)CCNCc1ccc(OC(F)F)c(OCc2cc(C(F)(F)F)cc(C(F)(F)F)c2)c1 [MZ26]	can significantly inhibit	LPS-induced Il1b expression ([1]; BV2, 100 ng/mL LPS, 12 hours): can significantly reduce
OCCNCc1ccccc1OCc1cc(C(F)(F)F)cc(C(F)(F)F)c1 [MZ67]	can significantly inhibit	
COc1cc(OC)c(C=O)c(OCc2cc(C(F)(F)F)cc(C(F)(F)F)c2)c1 [MZ41]	can significantly inhibit	
OCCNCc1ccccc1NCc1cccc(OC(F)(F)F)c1 [MZ75]	can significantly inhibit	LPS-induced Il1b expression [3]: can significantly reduce

SMILES	deubiquitinase activity of USP25 (Ubiquitin-Rhodamine 110 fluorescence intensity) [2]	further results
O=Cc1cc(Br)ccc1OCc1cc(F)c(F)cc1F [MZ38]	can significantly inhibit	
COc1cc(OC)c(CNCCO)c(OCc2cc(C(F)(F)F)cc(C(F)(F)F)c2)c1 [MZ69]	can significantly inhibit	
COc1ccc(CNCCO)cc1OCc1cc(C(F)(F)F)cc(C(F)(F)F)c1 [MZ72]	can significantly inhibit	
COc1ccc(CNCCO)cc1OCc1ccc(F)c(C(F)(F)F)c1 [MZ71]	can significantly inhibit	
OCCNCc1ccccc1NCc1ccc(F)c(C(F)(F)F)c1 [MZ74]	can significantly inhibit	
CCN1CCN(Cc2cc(Br)ccc2OCc2ccc(F)c(C(F)(F)F)c2)CC1 [MZ33]	can significantly inhibit	
CN1CCN(Cc2ccc(OC(F)F)c(OCc3cc(C(F)(F)F)cc(C(F)(F)F)c3)c2)CC1 [MZ23]	can significantly inhibit	LPS-induced Il1b expression ([1]; BV2, 50 ng/mL LPS, 12 hours): can significantly reduce
OCCNCc1cc(Br)ccc1NCc1ccc(F)c(C(F)(F)F)c1 [MZ76]	can significantly inhibit	LPS-induced Il1b expression [3]: can significantly reduce
CCN(CC)CCNCc1cc(Br)ccc1OCc1cc(F)c(F)cc1F [MZ34]	can significantly inhibit	LPS-induced Il1b expression ([1]; BV2, 50 ng/mL LPS, 12 hours): can significantly reduce
Fc1ccc(COc2ccc(Br)cc2CN(CCC2CCN(Cc3ccccc3)CC2)Cc2cc(Br)ccc2OCc2ccc(F)c(C(F)(F)F)c2)cc1C(F)(F)F [MZ36]	can significantly inhibit	
OCCNCc1cc(Br)ccc1OCc1cc(C(F)(F)F)cc(C(F)(F)F)c1 [MZ1]	can significantly inhibit	
O=Cc1cc(Br)ccc1OCc1ccc(F)c(C(F)(F)F)c1 [MZ39, 5-bromo-2-(4-fluoro-3-(trifluoromethyl)benzyloxy)benzaldehyde]	can significantly inhibit	
OCCNCc1ccc(OC(F)F)c(OCc2cc(C(F)(F)F)cc(C(F)(F)F)c2)c1 [MZ3]	can significantly inhibit	LPS-induced Il1b expression ([1]; BV2, 25 ng/mL LPS, 24 hours): can significantly reduce
OCCNCc1cc(Br)ccc1NCc1cccc(OC(F)(F)F)c1 [MZ77]	can significantly inhibit	LPS-induced Il1b expression [3]: can significantly reduce
OCCN1CCN(Cc2ccc(OC(F)F)c(OCc3cc(F)c(F)cc3F)c2)CC1 [MZ29]	can significantly inhibit	LPS-induced Il1b expression ([1]; BV2, 100 ng/mL LPS, 12 hours): can significantly reduce
COc1cc(OC)c(CNCCO)c(OCc2ccc(F)c(C(F)(F)F)c2)c1 [MZ68]	can significantly inhibit	
Cc1ccc(OCc2ccc(F)c(C(F)(F)F)c2)c(CN2CCN(CCO)CC2)c1 [MZ32]	can significantly inhibit	
OCc1cc(Br)ccc1OCc1ccc(F)c(C(F)(F)F)c1 [MZ35]	can significantly inhibit	

Reference: patent US12655088B2, “Compound for treating Alzheimer's disease” (XIAMEN UNIVERSITY, priority 2020, dated 2026)
